Assay results: ChEMBL document CHEMBL3507680, “University of Dundee, Gates Library screen for HepG2 cell viability”

Test: Human HepG2 cell viability assay in 384 well format
Format: toxicity, cell-based
Design: dose 125 nL, time 70.5 hour; cytotoxicity at 70.5 h: concentration not given beside the values
Settings: HepG2 cells, read-out: Inhibition

O=C(NCCC(=O)N1CCCC1)c1cccnc1
cytotoxicity at 70.5 h: 17.4%

COc1cc(C(=O)O)ccc1OCC(=O)NCCc1ccccc1
cytotoxicity at 70.5 h: -2.71%

CC(C)(C)c1cn(C[C@H]2CC3CCN2C[C@@H]3C(=O)NC2CC2)nn1 (some centres not stated)
cytotoxicity at 70.5 h: 10.5%

Cc1occc(=O)c1OCc1noc(C(=O)NCC(C)C)n1
cytotoxicity at 70.5 h: -16.8%

CCc1ncc(C(=O)N2CCCOC(Cn3cccn3)C2)cn1 (configuration not stated)
cytotoxicity at 70.5 h: -0.891%

Cc1cc(N2CCC(NC(=O)C3CC3)CC2)nc(-c2ccncc2)n1
cytotoxicity at 70.5 h: -5.8%

CN(C)C(=O)[C@H]1C[C@@H]2CCN(Cc3ccoc3)C[C@@H]2O1
cytotoxicity at 70.5 h: -13.4%

CC(C)[C@@H]1CN(c2ncc(F)cn2)C[C@H]1NS(=O)(=O)N(C)C
cytotoxicity at 70.5 h: 15.6%

CN(C)c1cc(CNC(=O)c2ccc(F)cc2)ccn1
cytotoxicity at 70.5 h: 2.85%

CS(=O)(=O)Nc1ccc(CNC(=O)CN2CCc3ccccc32)cc1
cytotoxicity at 70.5 h: 7.44%

CCn1ccnc1CN1CCCn2nc(CNC(=O)C3CCC3)cc2C1
cytotoxicity at 70.5 h: -7.76%

Cc1cc(N[C@H]2CN(CC(C)(C)N3CCOCC3)C[C@@H]2C2CC2)ncn1
cytotoxicity at 70.5 h: -15.4%

Cc1cc(C(=O)N[C@H]2CN(CCC(N)=O)C[C@@H]2C2CC2)sc1C
cytotoxicity at 70.5 h: 9.55%

CCn1ccc(-c2cc(C(=O)O)n3nc(C(F)(F)F)c(Br)c3n2)n1
cytotoxicity at 70.5 h: -3.3%

COC(=O)c1cccn1C1CCN(Cc2cccnc2)CC1
cytotoxicity at 70.5 h: 4.46%

CC(=O)N1CCC[C@@H](NCc2ccc(F)cc2)[C@@H]1c1ccc(C)s1
cytotoxicity at 70.5 h: -8.87%

Cn1cc(CN2CCC(F)(F)C3(CCN(c4cccnc4)C3)C2)cn1 (configuration not stated)
cytotoxicity at 70.5 h: -9.49%

O=C(Cc1ccccn1)N1CCc2ncnc(N3CCCC3)c2CC1
cytotoxicity at 70.5 h: -0.341%

CNC(=O)CCc1cc(C)nc(C2CCN(c3ccccc3)CC2)c1
cytotoxicity at 70.5 h: -3.63%

CC(C)(C)C(=O)NCCCn1cncn1
cytotoxicity at 70.5 h: 6.35%

Cc1ccc(CNC(=O)N2CCN(S(C)(=O)=O)CC2)n1C
cytotoxicity at 70.5 h: -6.21%

CCN(Cc1nccn1C)C(=O)c1ccc(NCc2cnn(C)c2)nc1
cytotoxicity at 70.5 h: -3.96%

CC(=O)Nc1nc(CNc2ccccc2CCC(F)(F)F)cs1
cytotoxicity at 70.5 h: -12%

CC(C)n1cc(C(=O)N2CCN(c3cccc(C(F)(F)F)c3)CC2)cn1
cytotoxicity at 70.5 h: -5.28%

c1ncn(CC2CN(Cc3noc(C4CC4)n3)CCO2)n1 (configuration not stated)
cytotoxicity at 70.5 h: 29.1%

COCCOCCNC(=O)N1CCc2c(F)ccc(F)c2C1
cytotoxicity at 70.5 h: 2.28%

Cc1ccccc1S(=O)(=O)CCOC(C)C
cytotoxicity at 70.5 h: 9.57%

CCc1nc(C2CCCN2CCC(=O)N2CCc3ccccc32)no1 (configuration not stated)
cytotoxicity at 70.5 h: 20.5%

CC(C)c1ncc(Cl)c(C(=O)N2CCN(C3CC3)CC2)n1
cytotoxicity at 70.5 h: -7.86%

COC(=O)c1ccc(N2CCN(C(=O)c3ccncc3)C(C)C2)cc1 (configuration not stated)
cytotoxicity at 70.5 h: 15.3%

COc1ccccc1OC1CN(C(=O)c2ccc(C(C)=O)s2)C1
cytotoxicity at 70.5 h: -10.9%

O=C(Nc1ccccn1)N(CCO)Cc1ccsc1
cytotoxicity at 70.5 h: 4.99%

O=C([C@H]1CN(Cc2nccs2)C[C@H]2OCC[C@@H]12)N1CCCCO1
cytotoxicity at 70.5 h: -10.9%

CCn1cc(N)c(C(=O)NCc2cnn(C)c2)n1
cytotoxicity at 70.5 h: -7.78%

O=C(Cn1cc(I)cn1)Nc1cccnc1
cytotoxicity at 70.5 h: -9.49%

CN1CC(=O)c2sc(NCCc3ccccc3)nc2C1
cytotoxicity at 70.5 h: 30%

CCN(CC)S(=O)(=O)NCC1Cc2ccccc2O1 (configuration not stated)
cytotoxicity at 70.5 h: -3.76%

Cc1cnc(C(=O)N2CC[C@H]3C[C@@H](c4nc(C)cs4)O[C@@H]3C2)cn1
cytotoxicity at 70.5 h: 7.61%

CCC(CO)NC(=O)Nc1cc(F)ccc1SCC(F)F (configuration not stated)
cytotoxicity at 70.5 h: -11.1%

Cc1cnn(CCNCc2ccc(S(C)(=O)=O)cc2)c1
cytotoxicity at 70.5 h: -4.97%

CCOC(=O)CNC(=O)N1CCOC(Cc2ccc(OC)cc2)C1 (configuration not stated)
cytotoxicity at 70.5 h: -0.738%

COc1cc(CCC(=O)NCC2CCCN2C)ccc1OCC(F)(F)F (configuration not stated)
cytotoxicity at 70.5 h: -7.43%

Cc1n[nH]c2c1C(c1cccnc1)SCC(=O)N2 (configuration not stated)
cytotoxicity at 70.5 h: -13.5%

CCN1CCN(C(=O)CCC2CCN(C(=O)CCSC)CC2)CC1
cytotoxicity at 70.5 h: 22.6%

Cc1cc(CN2CC[C@H]3OCC[C@@]3(C(=O)N3CCOCC3)C2)no1
cytotoxicity at 70.5 h: -5%

Cn1cc(C(=O)NCC(Cc2cccc(F)c2)N2CCCCC2=O)nn1 (configuration not stated)
cytotoxicity at 70.5 h: -14.8%

c1ccc(CN2CCN(Cc3cscn3)CC2)cc1
cytotoxicity at 70.5 h: -6.7%

Cc1cc2cc(CNC3CCN(S(C)(=O)=O)CC3)oc2cc1C
cytotoxicity at 70.5 h: -1.78%

CN1CCOC(CNCCOc2cccc(C#N)c2)C1 (configuration not stated)
cytotoxicity at 70.5 h: -7.36%

CCC(C)(C)NC(=O)CSCc1ccc(S(=O)(=O)N(C)C)o1
cytotoxicity at 70.5 h: -9.79%

CC(C)Cc1cc(-c2cc(-c3ccc[nH]3)nc(N)c2C#N)n[nH]1
cytotoxicity at 70.5 h: 21.1%

CCN(CC)c1nc2ccsc2c(=O)n1CCC(=O)NC1CCCC1
cytotoxicity at 70.5 h: -6.51%

Cc1cc(-c2c(C)c(-c3cnn(C)c3)nc(N)c2C#N)oc1C
cytotoxicity at 70.5 h: 37.4%

CCc1cccc2cc(CNCCOC)c(=O)[nH]c12
cytotoxicity at 70.5 h: 21.7%

Cn1ccnc1C1CCN(S(=O)(=O)c2ccc3oc(=O)[nH]c3c2)CC1
cytotoxicity at 70.5 h: -9.3%

COC(=O)NCC(=O)NCC(C)(C)c1cccc(C(F)(F)F)c1
cytotoxicity at 70.5 h: -1.23%

Cc1ccnc(OCC(=O)N2CCCC2)n1
cytotoxicity at 70.5 h: -0.226%
